Source: patent publication US20140377403A1, “METHOD FOR EVALUATING FLAVOR-IMPROVING AGENT” (T. HASEGAWA CO., LTD., priority 2011, published 2014)

Legend:
[1] = tested on: salivary gland; assay: Salivary gland response: change in blood flow (signal strength) at a periphery of the temple of the forehead, measured with an optical topography system; format: in vivo, human
Description: Each subject is held in a resting state, keeps water in the mouth such that the water spreads throughout the mouth for 30 seconds, then swallows the water, and then is held in a resting state for 60 seconds. Subsequently, the subject keeps a sample in the mouth to carefully taste the sample in the mouth for 30 seconds, then swallows the sample, and then is held in a resting state for 60 seconds again. Subsequently, the subject keeps water in the mouth again such that the water spreads throughout the mouth for 30 seconds, then swallows the water, and then is held in a resting state for 60 seconds. Subsequently, the subject keeps another sample in the mouth to carefully taste the sample in the mouth for 30 seconds, then swallows the sample, and then is held in a resting state for 60 seconds again. Thus, drinking of water and drinking of a sample are alternately repeated (FIG. 2). A sample can be evaluated at about four or five different concentrations in each experiment. […] Samples at previously selected four or five different concentrations are sequentially evaluated by the above-described procedure. During the evaluation of the sample, including the times of drinking and resting, the blood flow is measured, and the change therein is recorded. In addition, sensory evaluation is performed during the tasting of the sample in the mouth for 30 seconds. After completion of the evaluation at a series of four or five concentrations, the strength of flavor of the sample is concluded lastly to fill the sensory evaluation sheet (FIG. 3). When a sample is drunk in accordance with the above-described procedure, the blood flow at a periphery of the temple of the forehead gradually increases after putting the sample into the mouth, and the signal strength reaches the maximum within about 5 to 30 seconds. Subsequently, the signal strength gradually decreases and reaches the original level within about 60 seconds after putting the sample into the mouth. Accordingly, a value obtained by subtracting the “minimum” blood flow within about 15 seconds after the moment of putting a sample into the mouth from the “maximum” blood flow during from about 5 to 30 seconds after putting the sample into the mouth at a specific site, i.e., the response strength of a change in blood flow, is defined as a change in signal strength at the periphery of the temple of the forehead. […] A probe (FIG. 1) having a large number of sensors connected to an optical topography system body was set to the head of each subject, and then each sample was given to the subjects sequentially, followed by measurement. In accordance with the time schedule shown in FIG. 2, after resting, water was first given, and then a sample was given to aggressively evaluate the flavor. The order of drinking aqueous solutions of one kind of a taste substance given to the subjects was from a lower concentration to a higher concentration sequentially. (1) FIG. 4 is a graph illustrating the amount of typical change in oxygenated hemoglobin with time when water was put in the mouth and drunk and then a sample was put in the mouth and drunk, measured with an optical topography system at a periphery of the temple of the forehead (channel 52). […] The response strength was determined by that “when the time at which a sample was drunk is defined as a time of 0 second, (the maximum blood flow within 5 to 30 seconds)−(the minimum blood flow within 0 to 15 seconds)”.

[2] = tested on: subjects; assay: Sensory evaluation of strength of taste of sample solutions by subjects; format: in vivo, human; conditions: for strength of sensory sweetness: subjects who showed a change in salivary gland response in Example 2
Description: Each subject is held in a resting state, keeps water in the mouth such that the water spreads throughout the mouth for 30 seconds, then swallows the water, and then is held in a resting state for 60 seconds. Subsequently, the subject keeps a sample in the mouth to carefully taste the sample in the mouth for 30 seconds, then swallows the sample, and then is held in a resting state for 60 seconds again. Subsequently, the subject keeps water in the mouth again such that the water spreads throughout the mouth for 30 seconds, then swallows the water, and then is held in a resting state for 60 seconds. Subsequently, the subject keeps another sample in the mouth to carefully taste the sample in the mouth for 30 seconds, then swallows the sample, and then is held in a resting state for 60 seconds again. Thus, drinking of water and drinking of a sample are alternately repeated (FIG. 2). A sample can be evaluated at about four or five different concentrations in each experiment. […] Samples at previously selected four or five different concentrations are sequentially evaluated by the above-described procedure. During the evaluation of the sample, including the times of drinking and resting, the blood flow is measured, and the change therein is recorded. In addition, sensory evaluation is performed during the tasting of the sample in the mouth for 30 seconds. After completion of the evaluation at a series of four or five concentrations, the strength of flavor of the sample is concluded lastly to fill the sensory evaluation sheet (FIG. 3).
The sensory evaluation was performed in accordance with the evaluation questionnaire shown in FIG. 3 for the strength of taste as 0: tasteless, 3: weak, 6: moderate, 9: strong, and 12: very strong.
The samples of four different concentrations were subjected to sensory evaluation from a lower concentration of ethylmaltol to a higher concentration sequentially in accordance with the time schedule shown in FIG. 2 as in Example 1.

[3] = 0, 1, 5, 10 ppm added to 4% aqueous sugar solution

SMILES: COc1ccc(C=CC=O)cc1 [p-methoxycinnamaldehyde]
- response measured at the periphery of the temple of the forehead compared with 4% aqueous sugar solution alone ([1]; 0, 1, 5, 10 ppm added to 4% aqueous sugar solution, subjects who showed a change in salivary gland response in Example 2, FIGS. 8 and 9): enhanced
- strength of sensory sweetness [2, 3]: increased with the concentration

SMILES: CC(C)=CCCC(C)=CC=O [citral]
- response measured at the periphery of the temple of the forehead compared with 0.1% aqueous citric acid solution alone ([1]; 0, 1, 5, 10 ppm added to 0.1% aqueous citric acid solution, subjects showing a change in salivary gland response to a known flavor-improving agent, FIG. 10): enhanced
- strength of sensory acidity ([2]; 0, 1, 5, 10 ppm added to 0.1% aqueous citric acid solution, subjects showing a change in salivary gland response to a known flavor-improving agent): increased with the concentration
- strength of sensory sweetness [2, 3]: No increase

SMILES: OCCc1ccccc1 [2-phenylethyl alcohol]
- strength of sensory sweetness [2, 3]: No increase

SMILES: OC[C@H]1O[C@@](CO)(O[C@H]2O[C@H](CO)[C@@H](O)[C@H](O)[C@H]2O)[C@@H](O)[C@@H]1O [sugar]
- response strength measured at a periphery of the temple of the forehead, compared with water ([1]; aqueous sugar solution 0 to 8%, eight arbitrarily selected subjects): larger than that to water in all subjects
- dependence of response strength on sample concentration and sweetness strength ([1]; sugar concentration range 0 to 8%, eight subjects): an enhancement of the response strength depending on the sample concentration and the sweetness strength was observed

SMILES: CCc1occc(=O)c1O [ethylmaltol, reference compound]
- signal strength compared with 4% aqueous sugar solution alone ([1]; 0, 1, 5, 10 ppm added to 4% aqueous sugar solution, eight arbitrarily selected subjects, FIGS. 6 and 7): An enhancement in signal strength by addition of ethylmaltol was confirmed in six subjects
- strength of sensual sweetness ([2]; 0, 1, 5, 10 ppm added to 4% aqueous sugar solution, eight arbitrarily selected subjects): increased with the amount of ethylmaltol
